Measurements published in patent US12077503B2, “Substituted cyclic amides and their use as herbicides” (FMC CORPORATION, priority 2015, dated 2024).

Legend:
Assay in all cases: Test C preemergence
Format in all cases: in vivo
[1] = test system: Galium (catchweed bedstraw, Galium aparine); details: for Plant response rating (scale of 0 to 100), Galium: 0 is no effect, 100 is complete control; for Plant response rating, Galium: scale 0 to 100, 0 no effect, 100 complete control
Excerpt: (§1) Seeds of plant species selected from blackgrass (Alopecurus myosuroides), ryegrass, Italian (Italian ryegrass, Lolium multiflorum), wheat (winter wheat, Triticum aestivum), Galium (catchweed bedstraw, Galium aparine), corn (Zea mays), crabgrass, large (large crabgrass, Digitaria sanguinalis), foxtail, giant (giant foxtail, Setaria faberii), johnsongrass (Sorghum halepense), lambsquarters (Chenopodium album), morningglory (Ipomoea coccinea), nutsedge, yellow (yellow nutsedge, Cyperus esculentus), pigweed (Amaranthus retroflexus), ragweed (common ragweed, Ambrosia elatior), soybean (Glycine max), barnyardgrass (Echinochloa crus-galli), oilseed rape (Brassica napus), waterhemp (common waterhemp, Amaranthus rudis) and velvetleaf (Abutilon theophrasti) were planted into a blend of loam soil and sand and treated preemergence with test chemicals formulated in a non-phytotoxic solvent mixture which included a surfactant.
(§2) At the same time, plants selected from these crop and weed species and also Kochia (Kochia scoparia), oat, wild (wild oat, Avena fatua), and chickweed (common chickweed, Stellaria media) were planted in pots containing Sunshine Redi-Earth® planting medium comprising spaghnum peat moss, vermiculite, starter nutrients and dolomitic limestone and treated with postemergence applications of test chemicals formulated in the same manner. Plants ranged in height from 2 to 18 cm (1- to 4-leaf stage) for postemergence treatments. Treated plants and controls were maintained in a greenhouse for 13 to 15 d, after which time all species were compared to controls and visually evaluated. Plant response ratings, summarized in Table C, are based on a scale of 0 to 100 where 0 is no effect and 100 is complete control. A dash (-) response means no test result.

[2] = test system: barnyardgrass (Echinochloa crus-galli); details: for Plant response rating (scale of 0 to 100), Barnyardgrass: 0 is no effect, 100 is complete control; for Plant response rating, Barnyardgrass: scale 0 to 100, 0 no effect, 100 complete control
Excerpt: as §1, §2

[3] = test system: blackgrass (Alopecurus myosuroides); details: for Plant response rating (scale of 0 to 100), Blackgrass: 0 is no effect, 100 is complete control; for Plant response rating, Blackgrass: scale 0 to 100, 0 no effect, 100 complete control
Excerpt: as §1, §2

corn (Zea mays) = details: for Plant response rating (scale of 0 to 100), Corn: 0 is no effect, 100 is complete control; for Plant response rating, Corn: scale 0 to 100, 0 no effect, 100 complete control
Excerpt: as §1, §2

[4] = test system: crabgrass, large (large crabgrass, Digitaria sanguinalis); details: for Plant response rating (scale of 0 to 100), Crabgrass, Large: 0 is no effect, 100 is complete control; for Plant response rating, Crabgrass, Large: scale 0 to 100, 0 no effect, 100 complete control
Excerpt: as §1, §2

[5] = test system: foxtail, giant (giant foxtail, Setaria faberii); details: for Plant response rating (scale of 0 to 100), Foxtail, Giant: 0 is no effect, 100 is complete control; for Plant response rating, Foxtail, Giant: scale 0 to 100, 0 no effect, 100 complete control
Excerpt: as §1, §2

[6] = test system: lambsquarters (Chenopodium album); details: for Plant response rating (scale of 0 to 100), Lambsquarters: 0 is no effect, 100 is complete control; for Plant response rating, Lambsquarters: scale 0 to 100, 0 no effect, 100 complete control
Excerpt: as §1, §2

[7] = test system: morningglory (Ipomoea coccinea); details: for Plant response rating (scale of 0 to 100), Morningglory: 0 is no effect, 100 is complete control; for Plant response rating, Morningglory: scale 0 to 100, 0 no effect, 100 complete control
Excerpt: as §1, §2

[8] = test system: nutsedge, yellow (yellow nutsedge, Cyperus esculentus); details: for Plant response rating (scale of 0 to 100), Nutsedge, Yellow: 0 is no effect, 100 is complete control; for Plant response rating, Nutsedge, Yellow: scale 0 to 100, 0 no effect, 100 complete control
Excerpt: as §1, §2

[9] = test system: oilseed rape (Brassica napus); details: for Plant response rating (scale of 0 to 100), Oilseed Rape: 0 is no effect, 100 is complete control; for Plant response rating, Oilseed Rape: scale 0 to 100, 0 no effect, 100 complete control
Excerpt: as §1, §2

[10] = test system: pigweed (Amaranthus retroflexus); details: for Plant response rating (scale of 0 to 100), Pigweed: 0 is no effect, 100 is complete control; for Plant response rating, Pigweed: scale 0 to 100, 0 no effect, 100 complete control
Excerpt: as §1, §2

[11] = test system: ragweed (common ragweed, Ambrosia elatior); details: for Plant response rating (scale of 0 to 100), Ragweed: 0 is no effect, 100 is complete control; for Plant response rating, Ragweed: scale 0 to 100, 0 no effect, 100 complete control
Excerpt: as §1, §2

[12] = test system: ryegrass, Italian (Italian ryegrass, Lolium multiflorum); details: for Plant response rating (scale of 0 to 100), Ryegrass, Italian: 0 is no effect, 100 is complete control; for Plant response rating, Ryegrass, Italian: scale 0 to 100, 0 no effect, 100 complete control
Excerpt: as §1, §2

soybean (Glycine max) = details: for Plant response rating (scale of 0 to 100), Soybean: 0 is no effect, 100 is complete control; for Plant response rating, Soybean: scale 0 to 100, 0 no effect, 100 complete control
Excerpt: as §1, §2

[13] = test system: velvetleaf (Abutilon theophrasti); details: for Plant response rating (scale of 0 to 100), Velvetleaf: 0 is no effect, 100 is complete control; for Plant response rating, Velvetleaf: scale 0 to 100, 0 no effect, 100 complete control
Excerpt: as §1, §2

[14] = test system: waterhemp (common waterhemp, Amaranthus rudis); details: for Plant response rating (scale of 0 to 100), Waterhemp: 0 is no effect, 100 is complete control; for Plant response rating, Waterhemp: scale 0 to 100, 0 no effect, 100 complete control
Excerpt: as §1, §2

[15] = test system: wheat (winter wheat, Triticum aestivum); details: for Plant response rating (scale of 0 to 100), Wheat: 0 is no effect, 100 is complete control; for Plant response rating, Wheat: scale 0 to 100, 0 no effect, 100 complete control
Excerpt: as §1, §2

CN1CC(c2ccc(C(C)(F)F)cc2)C(C(=O)Nc2ccccc2F)C1=O (centres unmarked) [Compound 691]
Plant response rating (scale of 0 to 100), Galium ([1]; 16 g ai/ha): 100 | Plant response rating (scale of 0 to 100), Galium ([1]; 31 g ai/ha): 100 | Plant response rating, Galium ([1]; 62 g ai/ha): 95 | Plant response rating, Galium ([1]; 125 g ai/ha): 95 | Plant response rating (scale of 0 to 100), Barnyardgrass ([2]; 16 g ai/ha): 90 | Plant response rating (scale of 0 to 100), Barnyardgrass ([2]; 31 g ai/ha): 90 | Plant response rating, Barnyardgrass ([2]; 62 g ai/ha): 98 | Plant response rating, Barnyardgrass ([2]; 125 g ai/ha): 100 | Plant response rating (scale of 0 to 100), Blackgrass ([3]; 16 g ai/ha): 0 | Plant response rating (scale of 0 to 100), Blackgrass ([3]; 31 g ai/ha): 0 | Plant response rating, Blackgrass ([3]; 62 g ai/ha): 5 | Plant response rating, Blackgrass ([3]; 125 g ai/ha): 75 | Plant response rating (scale of 0 to 100), Corn (corn (Zea mays); 16 g ai/ha): 0 | Plant response rating (scale of 0 to 100), Corn (corn (Zea mays); 31 g ai/ha): 40 | Plant response rating, Corn (corn (Zea mays); 62 g ai/ha): 55 | Plant response rating, Corn (corn (Zea mays); 125 g ai/ha): 65 | Plant response rating (scale of 0 to 100), Crabgrass, Large ([4]; 16 g ai/ha): 98 | Plant response rating (scale of 0 to 100), Crabgrass, Large ([4]; 31 g ai/ha): 100 | Plant response rating, Crabgrass, Large ([4]; 62 g ai/ha): 100 | Plant response rating, Crabgrass, Large ([4]; 125 g ai/ha): 100 | Plant response rating (scale of 0 to 100), Foxtail, Giant ([5]; 16 g ai/ha): 95 | Plant response rating (scale of 0 to 100), Foxtail, Giant ([5]; 31 g ai/ha): 95 | Plant response rating, Foxtail, Giant ([5]; 62 g ai/ha): 98 | Plant response rating, Foxtail, Giant ([5]; 125 g ai/ha): 98 | Plant response rating (scale of 0 to 100), Lambsquarters ([6]; 16 g ai/ha): 70 | Plant response rating (scale of 0 to 100), Lambsquarters ([6]; 31 g ai/ha): 85 | Plant response rating, Lambsquarters ([6]; 62 g ai/ha): 90 | Plant response rating, Lambsquarters ([6]; 125 g ai/ha): 90 | Plant response rating (scale of 0 to 100), Morningglory ([7]; 16 g ai/ha): 0 | Plant response rating (scale of 0 to 100), Morningglory ([7]; 31 g ai/ha): 30 | Plant response rating, Morningglory ([7]; 62 g ai/ha): 20 | Plant response rating, Morningglory ([7]; 125 g ai/ha): 40 | Plant response rating (scale of 0 to 100), Nutsedge, Yellow ([8]; 16 g ai/ha): 0 | Plant response rating (scale of 0 to 100), Nutsedge, Yellow ([8]; 31 g ai/ha): 0 | Plant response rating, Nutsedge, Yellow ([8]; 62 g ai/ha): 0 | Plant response rating, Nutsedge, Yellow ([8]; 125 g ai/ha): 20 | Plant response rating (scale of 0 to 100), Oilseed Rape ([9]; 16 g ai/ha): 0 | Plant response rating (scale of 0 to 100), Oilseed Rape ([9]; 31 g ai/ha): 35 | Plant response rating, Oilseed Rape ([9]; 62 g ai/ha): 50 | Plant response rating, Oilseed Rape ([9]; 125 g ai/ha): 80 | Plant response rating (scale of 0 to 100), Pigweed ([10]; 16 g ai/ha): 35 | Plant response rating (scale of 0 to 100), Pigweed ([10]; 31 g ai/ha): 85 | Plant response rating, Pigweed ([10]; 62 g ai/ha): 90 | Plant response rating, Pigweed ([10]; 125 g ai/ha): 100 | Plant response rating (scale of 0 to 100), Ragweed ([11]; 16 g ai/ha): 0 | Plant response rating (scale of 0 to 100), Ragweed ([11]; 31 g ai/ha): 100 | Plant response rating, Ragweed ([11]; 62 g ai/ha): 70 | Plant response rating, Ragweed ([11]; 125 g ai/ha): 85 | Plant response rating (scale of 0 to 100), Ryegrass, Italian ([12]; 16 g ai/ha): 0 | Plant response rating (scale of 0 to 100), Ryegrass, Italian ([12]; 31 g ai/ha): 0 | Plant response rating, Ryegrass, Italian ([12]; 62 g ai/ha): 35 | Plant response rating, Ryegrass, Italian ([12]; 125 g ai/ha): 55 | Plant response rating (scale of 0 to 100), Soybean (soybean (Glycine max); 16 g ai/ha): 0 | Plant response rating (scale of 0 to 100), Soybean (soybean (Glycine max); 31 g ai/ha): 0 | Plant response rating, Soybean (soybean (Glycine max); 62 g ai/ha): 15 | Plant response rating, Soybean (soybean (Glycine max); 125 g ai/ha): 15 | Plant response rating (scale of 0 to 100), Velvetleaf ([13]; 16 g ai/ha): 10 | Plant response rating (scale of 0 to 100), Velvetleaf ([13]; 31 g ai/ha): 25 | Plant response rating, Velvetleaf ([13]; 62 g ai/ha): 40 | Plant response rating, Velvetleaf ([13]; 125 g ai/ha): 50 | Plant response rating (scale of 0 to 100), Waterhemp ([14]; 16 g ai/ha): 85 | Plant response rating (scale of 0 to 100), Waterhemp ([14]; 31 g ai/ha): 85 | Plant response rating, Waterhemp ([14]; 62 g ai/ha): 95 | Plant response rating, Waterhemp ([14]; 125 g ai/ha): 95 | Plant response rating (scale of 0 to 100), Wheat ([15]; 16 g ai/ha): 10 | Plant response rating (scale of 0 to 100), Wheat ([15]; 31 g ai/ha): 10 | Plant response rating, Wheat ([15]; 62 g ai/ha): 60 | Plant response rating, Wheat ([15]; 125 g ai/ha): 80
